Measured values taken from a melting point compilation (Tetko et al.; mined from patent text by program, amines drawn as free bases though some values may be those of a salt).

Row | melting point [°C] | SMILES
1 | 122 | OCc1ccc(-c2cn(Cc3ccccc3)c3ccccc23)cc1
2 | 240 to 244 | Nc1cc(-n2cc(C(=O)O)c(=O)c3cc(F)c(NC4COC4)c(Cl)c32)c(F)cc1F
3 | 140 to 142 | CCNC(=O)c1c([Si](C)(C)C)ccc(C=O)c1Cl
4 | 78 | COC(=O)c1scc(Cl)c1O
5 | 192 to 193 | CS(=O)(=O)Nc1cc2occ(N3CCCC3=O)c(=O)c2cc1Oc1ccccc1
6 | 58 | CC(C(=O)CCc1ccc(OC(F)(F)F)cc1)n1cncn1 (configuration not stated)
7 | 58 to 62 | CC(=O)NCc1ccc(C(C)Cl)cc1 (configuration not stated)
8 | 111 to 112 | FC(F)(F)c1ccn(-c2ccnc(Cl)n2)n1
9 | 260 | COc1ccc(Nc2cc(-c3ccc(F)cc3)nc3ccccc23)cc1Cl
10 | 122 to 123 | COc1cc2c(cc1OC)CN(CCCCOc1ccc(NC(=O)c3nccc4ccccc34)cc1)CC2
11 | 48 to 50 | CCOC(=O)c1ccc(C=C(C)c2ccc3c(c2)OCCC3(C)C)cc1
12 | 107 to 109 | CC(C)[C@H](CCC(=O)O)NC(=O)OC(C)(C)C
13 | 87 | CCOC(=O)CC(=O)Nc1c(C(=O)OC)cccc1C(F)(F)F
14 | > 250 | COc1ccccc1C1C(C#N)=C(C(C)C)Nc2n[nH]cc21 (configuration not stated)
15 | 114 to 115 | O=C(CO)c1ccc2ccccc2c1
16 | 146 to 147 | CCN1CC(=O)c2ccc3ccccc3c2S1(=O)=O
17 | 197 to 198 | C[C@@H](n1cnc2cc(N(C)C)c(F)cc2c1=O)[C@](O)(Cn1cncn1)c1ccc(F)cc1F
18 | 195 to 197 | O=c1ccc(-c2cc(F)c(OC3CCN(C4CCC4)CC3)c(F)c2)n[nH]1
19 | 102 to 104 | O=C(CC1CSCCC1=O)c1ccccc1 (configuration not stated)
20 | 170 to 171 | Cc1ccc(S(=O)(=O)C(CC(=O)C(C)(C)C)c2ccc(Cl)cc2)cc1 (configuration not stated)
21 | 152 | COc1nc(OC)nc(Oc2ccccc2C(=O)O)n1
22 | 199 to 200 | CN1C(=O)CC[C@]2(C)c3ccc(Sc4ccc5cccc([N+](=O)[O-])c5n4)cc3CC[C@@H]12
23 | 126 to 128 | O=C1[C@H]2CCC[C@H]2Nc2ccccc2N1Cc1cccc2ccccc12 (relative stereo)
24 | 201 to 206 | N[C@@H]1CCN(c2ccc3c(NC(=O)CC4CCCCC4)c(Cl)ccc3n2)C1

Row | melting point [°C] | SMILES
25 | 170 to 174 | NS(=O)(=O)c1cccc(S(=O)(=O)NC2CC2)c1
26 | 122 | CC(C)N(C(=O)c1cccc2c1CCc1cc(C(F)(F)F)ccc1S2)C(C)C
27 | 220 | Cc1cc(C)cc(Oc2c(CCCc3ccccc3)c(C)[nH]c(=O)c2I)c1
28 | 100 to 101 | CCCc1c(OCCCCCCc2cccc(OCCCCCC(=O)O)c2CCC(=O)O)ccc2c1CCCC2=O
29 | 149 to 150 | Cc1cccc(-c2nc(CCOc3ccc(CCCC4OC(=O)NC4=O)cc3)c(C)o2)c1 (configuration not stated)
30 | 212 to 214 | CC(=O)Nc1ccc2c(-c3ccccc3)c([N+](=O)[O-])oc2c1
31 | 110 to 115 | CC(C)(c1ccc(C(C)(C)c2ccc(O)cc2O)cc1)c1ccc(O)cc1O
32 | 98 to 100 | CCCCCCCCCCCCCCC1COC2(CC(c3ccccc3)N(O)C(c3ccccc3)C2)O1 (configuration not stated)
33 | 101 to 102 | CN(Cc1ccccc1)c1nc(=O)n(C(=O)c2cccs2)cc1F
34 | 49 to 50 | C=CCOC(=O)c1ccc(CC(=O)Nc2ccc3c(c2)C(C)(C)CCC3(C)C)cc1
35 | 164 to 165 | COc1ccc2c(c1)OCC(c1ccc(F)cc1)C2c1ccc(O)cc1 (configuration not stated)
36 | 94 to 96 | COc1cc2c(cc1OCc1ccccc1)CN(Cc1ccccc1)C2
37 | > 300 | CCN(CC)C(=O)N1CCc2c([N+](=O)[O-])cc3[nH]c(=O)c(=O)[nH]c3c2C1
38 | 112 to 114 | CCCCCCCCCCCCCCCCCCC1CNc2cc(C(=O)O)ccc21 (racemic)
39 | 145 | CCCCN1CC2CN(S(=O)(=O)c3ccc(NC(=O)c4ccc(C#N)cc4)cc3)CC(C1)C2(C)C
40 | 148 to 150 | COC(=O)c1sc2cc(OCc3cccnc3)ccc2c1Cl
41 | 70 to 72 | CC(C)=CCC(O)C(C)C1CC=C2C3=C(CCC21C)C1(C)CCC(O)C(C)(C)C1CC3 (configuration not stated)
42 | 67 to 77 | COc1ccccc1CN[C@H]1CCCN(CCCCCCCc2ccccc2)[C@H]1c1ccccc1 (relative stereo)
43 | 196 to 197 | CCC(C)(C)Nc1c(NCc2ccc(Cl)cc2Cl)c(=O)c1=O
44 | 160 to 163 | O=C(NCCc1c[nH]cn1)c1ccccc1NS(=O)(=O)c1cccc(C(F)(F)F)c1
45 | 201 to 203 | CCCCCCCOc1ccc(-c2ccc(N=Nc3ccc(N=Nc4ccc(N(C)C)cc4)cc3)cc2)cc1
46 | 59 to 61 | O=C(NCCOc1ccc(CC(Oc2ccccc2)C(=O)O)cc1Cl)c1ccc(-c2ccccn2)cc1 (configuration not stated)
47 | 175 to 176 | CN(C)C=C(C#N)C(=O)Nc1cc(Cl)ccc1Cl
48 | 189 to 191 | COc1ccc(C(=O)Nc2ccc(Cl)c(Cl)c2)cc1NC(=S)Nc1cc(Cl)cc(Cl)c1

Row | melting point [°C] | SMILES
49 | 144 to 150 | CCCCC(CC(=O)Nc1cc(C(N)=O)ccc1C(C)(C)C)c1cc(Cl)c(OCCCS(=O)(=O)CCC)cc1OC (configuration not stated)
50 | 99 to 100 | c1ccc(N(Cc2ccc(OCOc3ccc(CN(c4ccccc4)c4ccccc4)cc3)cc2)c2ccccc2)cc1
51 | 143 to 145 | CCC(C(=O)O)c1cccc(Oc2ccccc2Cl)c1O (configuration not stated)
52 | 89 to 91 | CCOC(=O)CNc1cc(Cl)nc(Cl)n1
53 | 110 to 111 | C=CCc1cc2c(c(CC=C)c1O)S(=O)CN2CC=C (configuration not stated)
54 | 107 to 115 | CS(=O)(=O)Nc1c([N+](=O)[O-])cnn1-c1c(Cl)cc(C(F)(F)F)c(F)c1Cl
55 | 238 to 240 | CP(=O)(O)c1ccc(C(=O)O)cc1
56 | 185 to 186 | N#Cc1ccc(C(=O)NNc2c(Cl)cc(C(F)(F)F)cc2Cl)cc1
57 | 84.9 | CCCCOc1ccc(-c2nc(CCOS(=O)(=O)c3ccc(C)cc3)c(C)o2)cc1
58 | 101 | CCCc1cc(C(O)(CC)CC)ccc1-c1cc(OCc2ccc(CO)c(CO)c2)ccc1CC
59 | 101 to 106 | CC1(C)C(C#N)C1C(=O)O (configuration not stated)
60 | 119 to 121 | CC1=C(C(=O)CS(=O)(=O)NC(C)C)C(c2cccc([N+](=O)[O-])c2)C(C(=O)OC(C)C)=C(C)N1 (configuration not stated)
61 | 155 | CN(C)[C@H]1CC[C@H](Nc2ncc3ncnc(Nc4ccc(OCc5ccccc5)cc4)c3n2)CC1
62 | 147 to 149 | COC(=O)N(C)c1cn2cc(Sc3ccccc3)ccc2n1
63 | 153 to 155 | Cc1cc(C)c(Nc2nc(C)ccc2S(=O)(=O)c2ccc(OCc3ccccc3[N+](=O)[O-])cc2)c(C)c1
64 | 116 to 118 | Cc1nc2cccc3n(CCCCNS(=O)(=O)CC(F)(F)F)c(=O)c1n23
65 | 78 to 79 | COP(=O)(CC(=O)COc1cccc(Cl)c1)OC
66 | 234 | CCOC(=O)c1cnn(C)c1C(=O)Nc1ccc2nc(N3CCOCC3)nn2c1
67 | 130 to 131 | CCOC(=O)C1=C(C)N(C(C)=O)C(c2cscn2)=NC1c1cccc(OC)c1 (configuration not stated)
68 | 85 to 95 | CN(C)CCCOc1ccc(C(=O)c2c(-c3ccccc3)oc3ccccc23)cc1
69 | 170 to 171 | COc1ccc(CCN2CCc3cc(O)c(OC)cc3C2)cc1
70 | 176 to 180 | CCc1cc(=O)c(C(=O)OC)c(C)[nH]1
71 | 163 to 165 | COc1ccc(Nc2ccn(-c3ccc(OCC(=O)O)cc3)n2)cc1
72 | 78 to 85 | Nc1c([N+](=O)[O-])cnn1-c1c(Cl)cc(C(F)(F)F)c(Cl)c1Cl

Row | melting point [°C] | SMILES
73 | 225 to 226 | CN(C)S(=O)(=O)c1cn(C)c2ccccc2c1=O
74 | 69.4 to 70.8 | COc1ccc(C(=O)CC(=O)C(C)(C)C)cc1C(=O)CC(=O)C(C)(C)C
75 | 154 to 156 | N#Cc1cnn(-c2ccc(Cl)c(Cl)c2Cl)c1N
76 | 200 to 202 | CC(C)(C)OC(=O)NC12CCC1CN(c1c(F)cc3c(=O)c(C(=O)O)cn(C4CC4)c3c1Cl)C2 (configuration not stated)
77 | 186 to 189 | COCCN1CCc2ccc(Nc3ncc(Cl)c(Nc4ccccc4C(=O)NC(C)C)n3)cc2CC1
78 | 122 to 124 | CCCCCCCCc1ccc(OCC(=O)Cn2ccc3cc(C(=O)O)ccc32)cc1
79 | 174 to 176 | COC(=O)COc1ccc2cc(CNC(=O)c3cnn(-c4ccc(Cl)cc4)c3C(F)(F)F)ccc2c1
80 | 168 to 169 | O=C1NC(=O)N(CCc2ccccc2)C1O (configuration not stated)
81 | 136 to 138 | O=C(O)c1ccccc1Oc1ccc(Br)cc1[N+](=O)[O-]
82 | 187 to 189 | O=C(O)C1=Cc2cc(F)c(F)cc2NC1C(F)(F)F (configuration not stated)
83 | 147 to 149 | C=CCSC1(C(F)(F)F)C=NC(=O)Nc2ccc(Cl)cc21 (configuration not stated)
84 | 150 | CCOCc1nc(C(C)(C)O)c(C(=O)O)n1Cc1ccc(-c2ccccc2-c2nnn[nH]2)cc1
85 | 71 to 72 | CC(C)(C)[Si](C)(C)N1C(=O)C[C@H]1CI
86 | 232 to 233 | COc1cc(C(=O)O)ccc1Cc1cn(C)c2ccc(CC3CCN(C)C3=O)cc12 (configuration not stated)
87 | 246 | CCOC(=O)N1C(=O)C(C)(C)c2cc(C3=NNC(=O)SC3C)ccc21 (configuration not stated)
88 | 157 to 158 | CCCc1nn2ncc(C(=O)OCOC(=O)C(C)(C)C)c2n1Cc1ccc(-c2ccccc2-c2nnn[nH]2)cc1
89 | 150 | Cc1cc(C)n(C(=O)C(C)NS(=O)(=O)c2ccc(Cl)cc2)n1 (configuration not stated)
90 | 80 to 85 | CN(C)CCNC(=O)c1ccccc1-c1nnc(CSCCOc2ccccc2)o1
91 | 48 to 49 | COC(=O)c1c(Cl)cc(C(F)(F)F)nc1C(F)(F)F
92 | 206 to 207 | CCCCn1c(=O)[nH]c(=S)c2[nH]c(CC)nc21
93 | 236 to 238 | CS(=O)(=O)c1ccc(NC(=O)c2ccccc2SSc2ccccc2C(=O)Nc2ccc(S(C)(=O)=O)cc2)cc1
94 | 57 to 58 | Nc1sc2c(c1C(=O)c1ccsc1)CCC(Cc1ccccc1)C2 (configuration not stated)
95 | 82 to 84 | COc1ccc2c(c1)C(C(=O)N(Cc1ccc(N(C)C)cc1)c1ccc(C(C)C)cc1)CCO2 (configuration not stated)

Row | SMILES | melting point [°C]
96 | CC1=NNC(=O)C1(C)Cl (configuration not stated) | 56
97 | CC(Cc1ccccc1)NC(=O)C(F)(F)F (configuration not stated) | 82 to 83
